Assay results: patent US12435065B2, “Crystalline forms of 1-(1,2-dimethylpropyl)-N-ethyl-5-methyl-N-pyridazin-4-yl-pyrazole-4-carboxamide” (BASF SE, priority 2019, dated 2025)

Key:
[1] = Suspension of form A and form B in water, solid analysed by PXRD (phase stability); format: physicochemical
Protocol: (§1) Laboratory PXRD patterns were recorded with a PANalytical X'Pert Pro X-ray diffractometer using Cu Kα radiation in reflection geometry (Bragg-Brentano). The sample is placed in a silicon single crystal sample holder of 0.2 mm depth and gently and precisely flattened. The tube voltage is 45 kV and current is 40 mA. The PXRD data are collected at room temperature in the range from 2θ=3.0°-40.0° with increments of 0.017° and measurement time of 20 to 200 s/step.
In a glass tube equipped with a stirring bar 50 mg of form A and 50 mg of form B were suspended in 1 mL water and stirred for 5 days at room temperature. The resulting solid was removed from the mother liquor and analyzed by PXRD.

[2] = Milling of crystalline form B, analysed by PXRD (stability during grinding); format: physicochemical; details: 100 mg milled for 5 minutes with mortar and pestle
Protocol: as §1
100 mg of crystalline form B obtained by the protocol of example 1 was milled for 5 minutes using mortar and pestel. The crystalline mass was analyzed by powder X-ray diffractometry.

| SMILES | Crystal form of the solid after stirring in water (PXRD) ([1]; 50 mg form A and 50 mg form B suspended in 1 mL water, stirred 5 days at room temperature) | Crystal form after milling (PXRD) [2] | Thermodynamic stability relative to crystalline form A ([1]; at least at room temperature) |
| --- | --- | --- | --- |
| CCN(C(=O)c1cnn(C(C)C(C)C)c1C)c1ccnnc1 (stereo not drawn) [form A, 1-(1,2-dimethylpropyl)-N-ethyl-5-methyl-N-pyridazin-4-yl-pyrazole-4-carboxamide] | complied with the data of crystalline form B |  |  |
| CCN(C(=O)c1cnn(C(C)C(C)C)c1C)c1ccnnc1 (stereo not drawn) [form B, 1-(1,2-dimethylpropyl)-N-ethyl-5-methyl-N-pyridazin-4-yl-pyrazole-4-carboxamide] |  | form B was identified | thermodynamically more stable than the crystalline form A |
